For data set [1], the target named is T1, CHEK1 (Homo sapiens, UniProt O14757).
T1 construct: host or cells: T7 phage in E. coli (BL21-derived)
Put plainly: KinomeScan kinase profiling. The format is binding.

Data set [2] deals with T2, IKK-beta (Homo sapiens, UniProt O14920).
T2 construct: host or cells: T7 phage in E. coli host derived from BL21
The experiment in a line: KinomeScan kinase profiling. It counts as binding.

Data set [3] deals with T3, DMPK2 (Homo sapiens, UniProt Q6DT37).
T3 construct: purchased Ambit Biosciences Corp (KinomeScan); host or cells: T7 phage in E. coli host derived from BL21
The experiment in a line: KinomeScan kinase profiling. It counts as binding.

Data set [4] addresses T4, EPHA1 (Homo sapiens, UniProt P21709).
T4 construct: host or cells: E. coli host derived from BL21, T7 phage lysate
The experiment in a line: KinomeScan kinase profiling. The format is binding.

Data set [5] has as its target T5, PDPK1 (Homo sapiens, UniProt O15530).
T5 construct: host or cells: E. coli host derived from the BL21 strain, infected with T7 phage
Put plainly: KinomeScan kinase profiling. It counts as binding.

In data set [6] the target is T6, RPS6KA2 (Kin.Dom.-1-N-terminal) (Homo sapiens, UniProt Q15349).
T6 construct: RPS6KA2 (Kin.Dom.-1-N-terminal); host or cells: E. coli host derived from BL21, T7 phage lysate
Put plainly: KinomeScan kinase profiling. The format is binding.

For data set [7], the target named is T7, MARK3 (Homo sapiens, UniProt P27448).
T7 construct: host or cells: E. coli derived from BL21, infected with T7 phage
Put plainly: KinomeScan kinase profiling. It counts as binding.

The target of data set [8] is T8, SRPK3 (Homo sapiens, UniProt Q9UPE1).
T8 construct: host or cells: E. coli host derived from the BL21 strain, T7 phage lysate
Put plainly: KinomeScan kinase profiling. The format is binding.

Data set [9] deals with T9, AKT1 (Homo sapiens, UniProt P31749).
T9 construct: host or cells: E. coli host derived from BL21 (T7 phage lysate)
Put plainly: KinomeScan kinase profiling. The format is binding.

Data set [10] deals with T10, YANK2 (Homo sapiens, UniProt Q9NY57).
T10 construct: purchased Ambit Biosciences Corp (KinomeScan); host or cells: E. coli host derived from the BL21 strain (T7 phage lysate)
Put plainly: KinomeScan kinase profiling. The format is binding.

Data set [11] deals with T11, TAOK1 (Homo sapiens, UniProt Q7L7X3).
T11 construct: host or cells: E. coli host derived from the BL21 strain, T7 phage lysate
The experiment in a line: KinomeScan kinase profiling. The format is binding.

In data set [12] the target is T12, PIP5K2B (Homo sapiens, UniProt P78356).
T12 construct: purchased Ambit Biosciences Corp (KinomeScan); host or cells: E. coli host derived from BL21, infected with T7 phage
Put plainly: KinomeScan kinase profiling. It counts as binding.

For data set [13], the target named is T13, ULK2 (Homo sapiens, UniProt Q8IYT8).
T13 construct: purchased Ambit Biosciences Corp (KinomeScan); host or cells: E. coli host derived from the BL21 strain (T7 phage lysate)
Put plainly: KinomeScan kinase profiling. It counts as binding.

The target in data set [14] is T14, FGFR1 (Homo sapiens, UniProt P11362).
T14 construct: host or cells: E. coli host derived from BL21, infected with T7 phage
Put plainly: KinomeScan kinase profiling. The format is binding.

In data set [15] the target is T15, LATS2 (Homo sapiens, UniProt Q9NRM7).
T15 construct: host or cells: T7 phage in E. coli host derived from BL21
The experiment in a line: KinomeScan kinase profiling. The format is binding.

Data set [16] addresses T16, CDK2 (Homo sapiens, UniProt P24941).
T16 construct: host or cells: T7 phage in E. coli (BL21-derived)
Put plainly: KinomeScan kinase profiling. The format is binding.

Data set [17] concerns the target T17, CDK9 (Homo sapiens, UniProt P50750).
T17 construct: host or cells: T7 phage in E. coli (BL21-derived)
Put plainly: KinomeScan kinase profiling. It counts as binding.

The target in data set [18] is T18, CAMK2G (Homo sapiens, UniProt Q13555).
T18 construct: purchased Ambit Biosciences Corp (KinomeScan); host or cells: E. coli host derived from the BL21 strain, T7 phage
The experiment in a line: KinomeScan kinase profiling. The format is binding.

Data set [19] addresses T19, MLK3 (Homo sapiens, UniProt Q16584).
T19 construct: host or cells: T7 phage in E. coli host derived from BL21
The experiment in a line: KinomeScan kinase profiling. It counts as binding.

For data set [20], the target named is T20, STK33 (Homo sapiens, UniProt Q9BYT3).
T20 construct: host or cells: E. coli host derived from the BL21 strain, T7 phage lysate
The experiment in a line: KinomeScan kinase profiling. The format is binding.

Data set [21] deals with T21, BMPR1A (Homo sapiens, UniProt P36894).
T21 construct: purchased Ambit Biosciences Corp (KinomeScan); host or cells: E. coli host derived from the BL21 strain, T7 phage
The experiment in a line: KinomeScan kinase profiling. The format is binding.

Data set [22] deals with T22, TGFBR1 (Homo sapiens, UniProt P36897).
T22 construct: host or cells: E. coli host derived from the BL21 strain, T7 phage lysate
The experiment in a line: KinomeScan kinase profiling. It counts as binding.

Data set [23] deals with T23, SRPK1 (Homo sapiens, UniProt Q96SB4).
T23 construct: host or cells: E. coli host derived from the BL21 strain, T7 phage lysate
Put plainly: KinomeScan kinase profiling. It counts as binding.

For data set [24], the target named is T24, ACVRL1 (Homo sapiens, UniProt P37023).
T24 construct: host or cells: E. coli host derived from BL21 (T7 phage lysate)
The experiment in a line: KinomeScan kinase profiling. It counts as binding.

The target in data set [25] is T25, ROS1 (Homo sapiens, UniProt P08922).
T25 construct: host or cells: E. coli host derived from BL21, T7 phage lysate
The experiment in a line: KinomeScan kinase profiling. The format is binding.

Data set [26] has as its target T26, EPHA2 (Homo sapiens, UniProt P29317).
T26 construct: host or cells: E. coli host derived from BL21, T7 phage lysate
The experiment in a line: KinomeScan kinase profiling. It counts as binding.

The target in data set [27] is T27, MUSK (Homo sapiens, UniProt O15146).
T27 construct: host or cells: T7 phage in E. coli host derived from BL21
Put plainly: KinomeScan kinase profiling. It counts as binding.

Data set [28] addresses T28, PAK6 (Homo sapiens, UniProt Q9NQU5).
T28 construct: host or cells: E. coli host derived from the BL21 strain, infected with T7 phage
The experiment in a line: KinomeScan kinase profiling. The format is binding.

The nature of data set [29]: Acute oral toxicity (MTD) in Swiss albino mice. The following applies: for clinical signs of toxicity: oral, 1000 mg/kg (high dose), mono hydrochloride, 1000 mg/kg. The format is in vivo.
Procedure: 20 male and 20 female Swiss albino mice were randomly divided into four groups (G1-G4). Each group was 5 male and 5 female Swiss albino mice. […] G1 was treated with placebo and served as a control. […] The mid dose group animals (G3-treated with 500 mg/kg b.wt) were administered the dose formulation twice with a gap of approximately 1 hour. Animals from high dose group (G4-treated with 1000 mg/kg b.wt) received the dose formulation four times with a gap of approximately one hour.

Here are results for 2 compounds from patent US9050341B2, “Methods of treating drug resistant and other tumors by administering 6,7-dialkoxy quinazoline derivatives” (NATCO PHARMA LIMITED, priority 2009, dated 2015).

T21 sequence (P36894 24-532): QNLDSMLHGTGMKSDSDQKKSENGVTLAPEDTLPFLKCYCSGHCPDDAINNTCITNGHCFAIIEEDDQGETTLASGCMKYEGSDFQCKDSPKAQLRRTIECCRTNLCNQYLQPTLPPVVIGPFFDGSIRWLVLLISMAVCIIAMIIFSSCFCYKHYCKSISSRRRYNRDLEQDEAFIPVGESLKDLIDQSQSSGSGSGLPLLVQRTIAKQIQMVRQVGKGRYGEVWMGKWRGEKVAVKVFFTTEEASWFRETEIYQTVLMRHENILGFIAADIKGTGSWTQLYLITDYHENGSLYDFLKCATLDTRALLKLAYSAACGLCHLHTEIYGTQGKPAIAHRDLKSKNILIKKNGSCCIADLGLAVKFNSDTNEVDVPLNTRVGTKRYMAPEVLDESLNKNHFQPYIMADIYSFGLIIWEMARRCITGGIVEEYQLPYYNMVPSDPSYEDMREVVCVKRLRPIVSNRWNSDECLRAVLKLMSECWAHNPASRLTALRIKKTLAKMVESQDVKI
T18 sequence (Q13555 whole entry): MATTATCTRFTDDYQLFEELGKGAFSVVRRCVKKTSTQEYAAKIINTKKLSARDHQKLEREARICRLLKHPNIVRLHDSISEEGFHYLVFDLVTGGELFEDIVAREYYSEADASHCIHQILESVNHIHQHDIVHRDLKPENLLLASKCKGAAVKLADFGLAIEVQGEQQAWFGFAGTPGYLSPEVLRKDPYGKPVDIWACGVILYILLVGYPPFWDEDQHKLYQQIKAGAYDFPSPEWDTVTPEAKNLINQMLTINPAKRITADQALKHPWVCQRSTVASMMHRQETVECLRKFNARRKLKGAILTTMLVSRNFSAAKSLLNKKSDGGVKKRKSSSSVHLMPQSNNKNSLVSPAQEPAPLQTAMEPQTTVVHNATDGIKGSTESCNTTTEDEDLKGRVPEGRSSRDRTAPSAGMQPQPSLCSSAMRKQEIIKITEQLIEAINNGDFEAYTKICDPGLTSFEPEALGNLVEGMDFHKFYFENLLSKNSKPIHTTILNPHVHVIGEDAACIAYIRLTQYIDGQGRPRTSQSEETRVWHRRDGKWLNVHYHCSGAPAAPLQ
T8 sequence (Q9UPE1 whole entry): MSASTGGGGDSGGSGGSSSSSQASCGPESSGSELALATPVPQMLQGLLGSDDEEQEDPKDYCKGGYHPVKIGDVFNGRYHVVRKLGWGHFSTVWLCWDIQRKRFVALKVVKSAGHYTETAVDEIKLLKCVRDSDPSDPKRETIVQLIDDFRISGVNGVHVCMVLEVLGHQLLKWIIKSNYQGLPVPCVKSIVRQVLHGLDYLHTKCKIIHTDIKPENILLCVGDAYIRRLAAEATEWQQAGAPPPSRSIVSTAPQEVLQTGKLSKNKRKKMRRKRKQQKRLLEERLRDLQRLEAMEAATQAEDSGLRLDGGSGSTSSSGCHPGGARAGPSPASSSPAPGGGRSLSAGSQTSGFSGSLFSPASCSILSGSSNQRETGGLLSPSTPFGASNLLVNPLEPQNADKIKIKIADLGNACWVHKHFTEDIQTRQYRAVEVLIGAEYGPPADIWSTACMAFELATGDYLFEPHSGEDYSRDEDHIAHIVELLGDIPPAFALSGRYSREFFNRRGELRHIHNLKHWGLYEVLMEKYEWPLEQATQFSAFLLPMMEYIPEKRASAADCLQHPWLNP
T10 sequence (Q9NY57 whole entry): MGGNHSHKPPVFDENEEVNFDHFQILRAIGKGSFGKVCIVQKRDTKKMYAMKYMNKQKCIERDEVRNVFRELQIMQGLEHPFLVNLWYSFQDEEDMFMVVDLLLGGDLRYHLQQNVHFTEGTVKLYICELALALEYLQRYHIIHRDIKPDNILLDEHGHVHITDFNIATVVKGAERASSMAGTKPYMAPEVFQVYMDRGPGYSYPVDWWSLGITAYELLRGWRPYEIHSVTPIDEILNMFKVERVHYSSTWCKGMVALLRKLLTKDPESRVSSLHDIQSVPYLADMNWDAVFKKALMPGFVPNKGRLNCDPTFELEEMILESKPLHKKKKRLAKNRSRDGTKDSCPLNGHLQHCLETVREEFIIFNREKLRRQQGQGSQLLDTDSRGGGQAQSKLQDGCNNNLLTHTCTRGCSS
T3 sequence (Q6DT37 whole entry): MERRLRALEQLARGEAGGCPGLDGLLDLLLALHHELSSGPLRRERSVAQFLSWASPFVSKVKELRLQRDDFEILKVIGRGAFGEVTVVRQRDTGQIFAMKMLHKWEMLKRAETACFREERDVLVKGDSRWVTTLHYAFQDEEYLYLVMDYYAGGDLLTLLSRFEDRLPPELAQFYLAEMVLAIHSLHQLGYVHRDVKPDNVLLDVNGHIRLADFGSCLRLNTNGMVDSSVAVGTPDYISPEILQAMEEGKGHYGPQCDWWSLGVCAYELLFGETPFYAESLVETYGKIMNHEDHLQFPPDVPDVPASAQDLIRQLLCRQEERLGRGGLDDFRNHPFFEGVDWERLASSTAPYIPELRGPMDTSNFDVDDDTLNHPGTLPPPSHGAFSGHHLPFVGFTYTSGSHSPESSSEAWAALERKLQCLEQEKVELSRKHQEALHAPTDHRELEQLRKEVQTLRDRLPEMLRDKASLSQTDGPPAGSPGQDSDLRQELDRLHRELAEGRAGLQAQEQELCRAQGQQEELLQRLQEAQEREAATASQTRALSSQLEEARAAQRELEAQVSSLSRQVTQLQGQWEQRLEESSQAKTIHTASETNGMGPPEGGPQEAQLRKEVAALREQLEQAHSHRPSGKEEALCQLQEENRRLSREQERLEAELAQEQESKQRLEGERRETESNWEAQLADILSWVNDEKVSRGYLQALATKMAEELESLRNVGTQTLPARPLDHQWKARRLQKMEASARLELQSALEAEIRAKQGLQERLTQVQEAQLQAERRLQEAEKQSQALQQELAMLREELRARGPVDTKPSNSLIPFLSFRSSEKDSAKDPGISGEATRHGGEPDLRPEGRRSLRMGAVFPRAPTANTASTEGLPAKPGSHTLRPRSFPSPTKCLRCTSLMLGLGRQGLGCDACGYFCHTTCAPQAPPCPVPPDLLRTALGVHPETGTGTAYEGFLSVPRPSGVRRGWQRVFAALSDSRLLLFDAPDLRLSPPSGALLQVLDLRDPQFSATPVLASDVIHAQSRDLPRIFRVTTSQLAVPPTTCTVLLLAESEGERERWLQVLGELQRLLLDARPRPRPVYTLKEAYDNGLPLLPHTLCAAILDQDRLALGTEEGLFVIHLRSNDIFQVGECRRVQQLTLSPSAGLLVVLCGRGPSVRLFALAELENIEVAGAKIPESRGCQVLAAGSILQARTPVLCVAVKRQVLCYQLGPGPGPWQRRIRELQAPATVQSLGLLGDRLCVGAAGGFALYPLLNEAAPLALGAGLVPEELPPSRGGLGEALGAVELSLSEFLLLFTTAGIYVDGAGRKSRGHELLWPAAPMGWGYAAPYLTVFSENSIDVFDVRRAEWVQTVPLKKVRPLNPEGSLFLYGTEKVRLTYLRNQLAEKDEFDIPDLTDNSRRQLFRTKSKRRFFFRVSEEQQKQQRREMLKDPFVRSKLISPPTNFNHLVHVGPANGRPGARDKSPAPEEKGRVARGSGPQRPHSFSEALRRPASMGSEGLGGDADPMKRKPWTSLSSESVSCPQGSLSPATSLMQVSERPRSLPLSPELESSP
T4 sequence (P21709 26-976): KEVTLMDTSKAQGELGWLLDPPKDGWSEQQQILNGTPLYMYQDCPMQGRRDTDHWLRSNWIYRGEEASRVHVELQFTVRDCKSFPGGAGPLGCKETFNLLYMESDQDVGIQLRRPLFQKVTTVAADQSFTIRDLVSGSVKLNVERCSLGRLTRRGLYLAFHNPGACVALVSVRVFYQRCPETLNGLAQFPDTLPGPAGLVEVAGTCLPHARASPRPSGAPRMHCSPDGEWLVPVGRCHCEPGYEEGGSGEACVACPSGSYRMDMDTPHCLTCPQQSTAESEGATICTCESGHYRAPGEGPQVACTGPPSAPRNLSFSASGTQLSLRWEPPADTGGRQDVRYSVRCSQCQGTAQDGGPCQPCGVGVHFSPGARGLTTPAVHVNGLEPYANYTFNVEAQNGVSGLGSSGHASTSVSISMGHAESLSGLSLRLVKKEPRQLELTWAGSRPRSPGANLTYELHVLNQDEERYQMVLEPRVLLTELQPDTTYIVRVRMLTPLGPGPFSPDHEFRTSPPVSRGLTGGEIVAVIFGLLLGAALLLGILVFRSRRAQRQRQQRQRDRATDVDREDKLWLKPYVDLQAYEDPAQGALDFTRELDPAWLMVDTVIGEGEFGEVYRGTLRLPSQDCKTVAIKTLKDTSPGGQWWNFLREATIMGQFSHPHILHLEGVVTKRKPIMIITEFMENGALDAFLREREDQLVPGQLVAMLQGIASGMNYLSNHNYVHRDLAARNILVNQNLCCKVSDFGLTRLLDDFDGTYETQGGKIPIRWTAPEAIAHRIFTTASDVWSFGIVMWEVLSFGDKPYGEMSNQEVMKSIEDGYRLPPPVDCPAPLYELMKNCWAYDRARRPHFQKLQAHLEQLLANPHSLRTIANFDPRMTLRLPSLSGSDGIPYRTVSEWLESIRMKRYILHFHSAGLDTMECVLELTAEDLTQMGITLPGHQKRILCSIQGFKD
T17 sequence (P50750 whole entry): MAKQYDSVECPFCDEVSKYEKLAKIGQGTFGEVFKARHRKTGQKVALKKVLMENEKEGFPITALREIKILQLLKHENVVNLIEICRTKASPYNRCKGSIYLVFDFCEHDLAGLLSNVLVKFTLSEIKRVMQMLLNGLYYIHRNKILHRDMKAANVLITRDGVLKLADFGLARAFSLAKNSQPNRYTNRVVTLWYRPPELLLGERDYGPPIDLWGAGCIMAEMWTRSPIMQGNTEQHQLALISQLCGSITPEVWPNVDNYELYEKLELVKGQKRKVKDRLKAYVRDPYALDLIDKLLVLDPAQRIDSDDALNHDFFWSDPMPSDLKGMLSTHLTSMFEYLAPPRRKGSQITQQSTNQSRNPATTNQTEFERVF

On to `C#Cc1cccc(Nc2ncnc3cc(OC)c(OCCCN4CCOCC4)cc23)c1` [NRC-2694, N-(3-ethylnylphenyl)-7-methoxy-6-[3-(4-morpholinyl)propoxy]-4-quinazolinamine], for which the “% Ctrl @ 10000 nM” value is listed as 42 % Ctrl in data set [1]; 51 % Ctrl in data set [2]; 61 % Ctrl in data set [3]; 55 % Ctrl in [4]; 94 % Ctrl in data set [5]; 70 % Ctrl in [6]. Besides, the “% Ctrl @ 10000 nM” value in data set [7] is 62 % Ctrl; in data set [8], 38 % Ctrl; in [9], 100 % Ctrl; in [10] it was 68 % Ctrl; in data set [11], 54 % Ctrl; in data set [12], 49 % Ctrl. Besides, the “% Ctrl @ 10000 nM” value in data set [13] came out at 39 % Ctrl; in [14], 64 % Ctrl; in data set [15], 93 % Ctrl; in [16], 94 % Ctrl; in data set [17], 86 % Ctrl; in data set [18], 58 % Ctrl. Moreover, the “% Ctrl @ 10000 nM” value in data set [19] is 72 % Ctrl; in data set [20], 43 % Ctrl; in [21] it was 100 % Ctrl; in data set [22] it was 83 % Ctrl; in [23], 40 % Ctrl; in [24], 91 % Ctrl. Moreover, the “% Ctrl @ 10000 nM” value in [25] is reported as 46 % Ctrl; in data set [26], 100 % Ctrl; in [27], 100 % Ctrl; in [28], 70 % Ctrl.

`C#Cc1cccc(Nc2ncnc3cc(OC)c(OCCCN4CCOCC4)cc23)c1.Cl` [NRC-2694 monohydrochloride, N-(3-ethylnylphenyl)-7-methoxy-6-[3-(4-morpholinyl)propoxy]-4-quinazolinamine mono hydrochloride]: the “maximum tolerated dose (MTD)” value in data set [29] (acute oral gavage, Swiss albino mice) was 1000 mg/kg body weight. For the same compound, the gross pathological examination entry in [29] (mice, after day 14) is recorded as “did not reveal any lesions of pathological significance”. Also, the “mean body weight and percent body weight” value in [29] (mice, compared with control groups) is “No significant alterations”. Besides, the “toxic signs or mortality” value in data set [29] (mice, oral gavage, 250 mg/kg body weight (low dose) and 500 mg/kg (mid dose)) is “did not produce any toxic signs or mortality”. The “clinical signs of toxicity” value was “signs of lethargy and piloerection in all animals without any mortality” in data set [29] (mice, listed as NRC-2694A blend); “mild lethargy and piloerection” in [29] (mice). Besides, the mortality entry in [29] (mice, oral, 250, 500 and 1000 mg/kg, 14 days observation) is on record as “No mortality”.
